What was measured:
[1] = system: human blood coagulation factor XIII; assay: optimum concentration of stabilizers: residual factor XIII activity after 60° C. for 30 minutes (Example 1); type: physicochemical
Source text: As for the measuring methods of factor XIII activity, fibrin formation, transglutaminase activity measurement, and immunologic measurement of antigen amount can be mentioned. Herein, the dansylcadaverine method (Nishida J., et al. Thromb. Res., vol. 36 pp. 123-131 (1984)) was adopted which can determine quantitatively the active factor XIII with high accuracy. Dansylcadaverine (purchased from YATRON) is a fluorescent amine which is the substrate of factor XIII, and forms dansylcadaverine-casein complex with casein by the action of factor XIII; the complex is separated by gel-filtration after the reaction and the factor XIII activity can be determined by the fluorescence intensity of the complex. The factor XIII activity is expressed by units; one unit is the amount of factor XIII which is contained in one milliliter of normal human plasma.
Optimum concentration of the present stabilizers was investigated.
To factor XIII produced according to the recombinant DNA technology as disclosed in DE 3804890 Al and incorporated by reference herein, (adjusted to the final titer of 100 units/ml with the water for injection according to the Pharmacopoeia of Japan) was added galactose, sucrose, D-sorbitol, sodium L-glutamate, sodium L-aspartate or L-histidine, and the mixture was warmed in a hot water bath at 60° C. for 30 minutes and then the activity of factor XIII was determined. Residual activity rate (%) of factor XIII was calculated, defining as 100% factor XIII activity of the preparation wherein factor XIII solution was adjusted to a titer of 100 units/ml.

[2] = system: factor XIII prepared by recombinant DNA technology; assay: storage stabilizer effect on factor XIII prepared by recombinant DNA technology; type: physicochemical, human

OC[C@@H](O)[C@@H](O)[C@H](O)[C@@H](O)CO [D-Sorbitol]
effective concentration of stabilizer [1]: 1.25-40 w/v %
Residual Activity Rate ([1]; additive conc. 1.25 w/v %): 73.8%
Residual Activity Rate ([1]; additive conc. 2.5 w/v %): 73.9%
Residual Activity Rate ([1]; additive conc. 5.0 w/v %): 74.5%
Residual Activity Rate ([1]; additive conc. 10 w/v %): 94.0%
Residual Activity Rate ([1]; additive conc. 15 w/v %): 98.4%
Residual Activity Rate ([1]; additive conc. 20 w/v %): 96.0%
Residual Activity Rate ([1]; additive conc. 40 w/v %): 86.9%

NCC(=O)O [Glycine]
effect as storage stabilizer (in words) [2]: ineffective

N[C@@H](Cc1c[nH]cn1)C(=O)O [L-Histidine, L-histidine]
Residual Activity Rate ([1]; additive conc. 0.125 w/v %): 62.2%
Residual Activity Rate ([1]; additive conc. 0.25 w/v %): 71.6%
Residual Activity Rate ([1]; additive conc. 0.5 w/v %): 78.4%
Residual Activity Rate ([1]; additive conc. 1.0 w/v %): 97.4%
Residual Activity Rate ([1]; additive conc. 2.0 w/v %): 65.3%

N[C@@H](CC(=O)[O-])C(=O)[O-].[Na+].[Na+] [Sodium L-aspartate, sodium L-aspartate]
Residual Activity Rate ([1]; additive conc. 0.125 w/v %): 83.3%
Residual Activity Rate ([1]; additive conc. 0.25 w/v %): 80.9%
Residual Activity Rate ([1]; additive conc. 0.5 w/v %): 93.3%
Residual Activity Rate ([1]; additive conc. 1.0 w/v %): 101.1%
Residual Activity Rate ([1]; additive conc. 2.0 w/v %): 66.5%
Residual Activity Rate ([1]; additive conc. 5.0 w/v %): 58.8%
Residual Activity Rate ([1]; additive conc. 10 w/v %): 55.4%

N[C@@H](CCC(=O)[O-])C(=O)[O-].[Na+].[Na+] [Sodium L-glutamate, sodium L-glutamate]
Residual Activity Rate ([1]; additive conc. 0.125 w/v %): 76%
Residual Activity Rate ([1]; additive conc. 0.25 w/v %): 71.1%
Residual Activity Rate ([1]; additive conc. 0.5 w/v %): 98.6%
Residual Activity Rate ([1]; additive conc. 1.0 w/v %): 92.5%
Residual Activity Rate ([1]; additive conc. 2.0 w/v %): 87.8%
Residual Activity Rate ([1]; additive conc. 5.0 w/v %): 79.4%
Residual Activity Rate ([1]; additive conc. 10 w/v %): 65.3%

OC[C@H]1O[C@@](CO)(O[C@H]2O[C@H](CO)[C@@H](O)[C@H](O)[C@H]2O)[C@@H](O)[C@@H]1O [Sucrose]
effective concentration of stabilizer [1]: 1.25-40 w/v %
Residual Activity Rate ([1]; additive conc. 1.25 w/v %): 86.7%
Residual Activity Rate ([1]; additive conc. 2.5 w/v %): 88.6%
Residual Activity Rate ([1]; additive conc. 5.0 w/v %): 90.0%
Residual Activity Rate ([1]; additive conc. 10 w/v %): 99.0%
Residual Activity Rate ([1]; additive conc. 15 w/v %): 100.0%
Residual Activity Rate ([1]; additive conc. 20 w/v %): 96.2%
Residual Activity Rate ([1]; additive conc. 40 w/v %): 75.7%

C[C@H](N)C(=O)O [alanine]
effect as storage stabilizer (in words) [2]: ineffective

NC(=O)CC[C@H](N)C(=O)O [glutamine]
effect as storage stabilizer (in words) [2]: ineffective

O=C(O)[C@@H]1C[C@@H](O)CN1 [hydroxyproline]
effect as storage stabilizer (in words) [2]: ineffective

galactose
effective concentration of stabilizer [1]: 1.25-40 w/v %

glucose
effect as storage stabilizer (in words) [2]: ineffective

From patent US6084074A, “Stabilized aqueous liquid preparations of blood coagulation factor XIII” (Centeon Pharma GmbH, priority 1995, dated 2000)
